From ChEMBL document CHEMBL5465560, “Selectivity Literature for EUbOPEN Chemogenomic Library” (2024) come the findings set out here.

The target of test [1] is Interferon-induced, double-stranded RNA-activated protein kinase (Homo sapiens) (UniProt P19525). Nature of the test: Selectivity interaction (KinomeScan (DiscoverX)) EUB0001619a EIF2AK2. The note with it: at 1 µM.
Test [2] has as its target Calcium/calmodulin-dependent protein kinase kinase 1 (Homo sapiens) (UniProt Q8N5S9). Nature of the test: Selectivity interaction (KinomeScan (DiscoverX)) EUB0000666a CAMKK1. The note with it: at 10 µM.
In test [3] the target is T1, Serine/threonine-protein kinase D1 (Homo sapiens) (UniProt Q15139).
T1 sequence (whole entry): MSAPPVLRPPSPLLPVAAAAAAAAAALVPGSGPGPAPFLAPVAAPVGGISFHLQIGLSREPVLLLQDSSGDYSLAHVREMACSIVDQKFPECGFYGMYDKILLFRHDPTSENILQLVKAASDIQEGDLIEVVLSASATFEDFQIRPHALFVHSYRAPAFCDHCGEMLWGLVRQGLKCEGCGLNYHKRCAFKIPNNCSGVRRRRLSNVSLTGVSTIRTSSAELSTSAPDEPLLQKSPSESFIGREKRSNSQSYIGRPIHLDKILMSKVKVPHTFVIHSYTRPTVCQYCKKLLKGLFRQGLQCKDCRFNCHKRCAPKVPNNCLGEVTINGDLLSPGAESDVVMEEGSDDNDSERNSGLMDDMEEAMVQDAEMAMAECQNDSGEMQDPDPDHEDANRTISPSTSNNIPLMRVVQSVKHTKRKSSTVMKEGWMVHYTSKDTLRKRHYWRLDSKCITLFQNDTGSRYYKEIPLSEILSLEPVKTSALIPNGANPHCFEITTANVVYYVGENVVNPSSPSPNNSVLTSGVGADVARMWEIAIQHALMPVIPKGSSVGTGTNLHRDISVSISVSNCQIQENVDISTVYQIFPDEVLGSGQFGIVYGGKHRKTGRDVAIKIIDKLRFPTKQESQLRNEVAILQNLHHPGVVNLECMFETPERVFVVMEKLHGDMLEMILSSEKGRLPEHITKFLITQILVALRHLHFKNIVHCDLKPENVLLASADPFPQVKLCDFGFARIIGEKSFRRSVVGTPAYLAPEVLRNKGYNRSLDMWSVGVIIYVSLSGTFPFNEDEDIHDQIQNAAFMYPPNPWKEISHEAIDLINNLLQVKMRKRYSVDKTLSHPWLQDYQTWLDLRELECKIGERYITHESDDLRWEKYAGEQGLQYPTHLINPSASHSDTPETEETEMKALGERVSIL
Briefly: Selectivity interaction (KinomeScan (DiscoverX)) EUB0000666a PRKD1. The note with it: at 10 µM.

For test [4], the target named is T2, Mitogen-activated protein kinase kinase kinase 7 (Homo sapiens) (UniProt O43318).
T2 sequence (whole entry): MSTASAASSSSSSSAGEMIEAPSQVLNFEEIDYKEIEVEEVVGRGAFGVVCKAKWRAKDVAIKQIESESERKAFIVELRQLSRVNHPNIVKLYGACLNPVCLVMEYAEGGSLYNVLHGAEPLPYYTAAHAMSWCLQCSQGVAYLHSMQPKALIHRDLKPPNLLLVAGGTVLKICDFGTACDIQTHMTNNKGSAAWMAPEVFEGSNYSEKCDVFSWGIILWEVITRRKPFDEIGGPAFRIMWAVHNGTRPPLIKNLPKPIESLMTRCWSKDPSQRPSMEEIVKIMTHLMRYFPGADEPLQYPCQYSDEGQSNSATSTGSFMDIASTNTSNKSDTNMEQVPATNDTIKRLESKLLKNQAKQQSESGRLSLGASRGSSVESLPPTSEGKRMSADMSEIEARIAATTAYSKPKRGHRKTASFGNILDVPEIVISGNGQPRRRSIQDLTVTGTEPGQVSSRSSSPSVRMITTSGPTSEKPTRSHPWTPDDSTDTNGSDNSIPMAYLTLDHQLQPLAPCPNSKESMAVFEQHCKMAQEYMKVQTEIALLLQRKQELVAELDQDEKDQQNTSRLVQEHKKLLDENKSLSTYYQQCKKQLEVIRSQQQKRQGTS
Nature of the test: Selectivity interaction (Kinase panel (Invitrogen)) EUB0000639a MAP3K7. The note with it: at 200 nM.

Test [5] addresses Protein arginine N-methyltransferase 8 (Homo sapiens, UniProt Q9NR22). The note with it: at 1 µM.
For test [6], the target named is Leukocyte tyrosine kinase receptor (Homo sapiens, UniProt P29376). Nature of the test: Selectivity interaction (KinomeScan (DiscoverX)) EUB0000045b LTK.
Test [7] deals with T3, Eukaryotic elongation factor 2 kinase (Homo sapiens) (UniProt O00418).
T3 sequence (whole entry): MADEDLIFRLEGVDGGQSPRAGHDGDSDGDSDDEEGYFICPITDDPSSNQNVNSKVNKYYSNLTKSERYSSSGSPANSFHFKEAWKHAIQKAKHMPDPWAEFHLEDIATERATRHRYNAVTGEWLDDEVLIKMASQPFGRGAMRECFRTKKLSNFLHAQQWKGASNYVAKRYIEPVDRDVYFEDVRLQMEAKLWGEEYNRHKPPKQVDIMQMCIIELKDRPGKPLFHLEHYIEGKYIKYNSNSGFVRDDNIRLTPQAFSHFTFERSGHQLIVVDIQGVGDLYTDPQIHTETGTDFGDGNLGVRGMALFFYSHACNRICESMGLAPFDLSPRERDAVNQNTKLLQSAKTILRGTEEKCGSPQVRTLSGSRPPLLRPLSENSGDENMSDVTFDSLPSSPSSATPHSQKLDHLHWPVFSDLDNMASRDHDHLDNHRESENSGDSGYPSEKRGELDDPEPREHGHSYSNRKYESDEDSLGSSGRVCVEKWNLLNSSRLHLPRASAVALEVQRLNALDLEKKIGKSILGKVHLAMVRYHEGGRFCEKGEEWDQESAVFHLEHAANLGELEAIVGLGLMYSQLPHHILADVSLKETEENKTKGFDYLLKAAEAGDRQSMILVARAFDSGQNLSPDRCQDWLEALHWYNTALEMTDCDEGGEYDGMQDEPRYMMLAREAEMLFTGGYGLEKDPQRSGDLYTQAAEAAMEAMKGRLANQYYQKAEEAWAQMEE
Nature of the test: Selectivity interaction (ProQinase) EUB0000171b EEF2K.

The target in test [8] is Cyclin-dependent kinase 2 (Homo sapiens, UniProt P24941). Nature of the test: Selectivity interaction (Ambit KINOMEscan and KiNATiv profiling in Jurkat cells) EUB0000090b CDK2. Particulars: at 1 µM. Type of test: cell-based.
Test [9] concerns the target Myosin light chain kinase 2, skeletal/cardiac muscle (Homo sapiens) (UniProt Q9H1R3). Briefly: Selectivity interaction (Ambit KINOMEscan and KiNATiv profiling in Jurkat cells) EUB0000090b MYLK2. Type of test: cell-based. Particulars: at 1 µM.
Test [10] deals with Tyrosine-protein kinase Yes (Homo sapiens) (UniProt P07947). Briefly: Selectivity interaction (KinomeScan (DiscoverX)) EUB0000092b YES1. Particulars: at 10 µM.
Test [11] addresses Calcium/calmodulin-dependent protein kinase type 1D (Homo sapiens) (UniProt Q8IU85). Briefly: Selectivity interaction (Kinase panel (DSF assay)) EUB0001558a CAMK1D. On the technique in general: In DSF a fluorescence change marks the thermal transition of the protein.

Where only a bound is given, the exact number is not on record here.

Leukocyte tyrosine kinase receptor, sequence (P29376 whole entry): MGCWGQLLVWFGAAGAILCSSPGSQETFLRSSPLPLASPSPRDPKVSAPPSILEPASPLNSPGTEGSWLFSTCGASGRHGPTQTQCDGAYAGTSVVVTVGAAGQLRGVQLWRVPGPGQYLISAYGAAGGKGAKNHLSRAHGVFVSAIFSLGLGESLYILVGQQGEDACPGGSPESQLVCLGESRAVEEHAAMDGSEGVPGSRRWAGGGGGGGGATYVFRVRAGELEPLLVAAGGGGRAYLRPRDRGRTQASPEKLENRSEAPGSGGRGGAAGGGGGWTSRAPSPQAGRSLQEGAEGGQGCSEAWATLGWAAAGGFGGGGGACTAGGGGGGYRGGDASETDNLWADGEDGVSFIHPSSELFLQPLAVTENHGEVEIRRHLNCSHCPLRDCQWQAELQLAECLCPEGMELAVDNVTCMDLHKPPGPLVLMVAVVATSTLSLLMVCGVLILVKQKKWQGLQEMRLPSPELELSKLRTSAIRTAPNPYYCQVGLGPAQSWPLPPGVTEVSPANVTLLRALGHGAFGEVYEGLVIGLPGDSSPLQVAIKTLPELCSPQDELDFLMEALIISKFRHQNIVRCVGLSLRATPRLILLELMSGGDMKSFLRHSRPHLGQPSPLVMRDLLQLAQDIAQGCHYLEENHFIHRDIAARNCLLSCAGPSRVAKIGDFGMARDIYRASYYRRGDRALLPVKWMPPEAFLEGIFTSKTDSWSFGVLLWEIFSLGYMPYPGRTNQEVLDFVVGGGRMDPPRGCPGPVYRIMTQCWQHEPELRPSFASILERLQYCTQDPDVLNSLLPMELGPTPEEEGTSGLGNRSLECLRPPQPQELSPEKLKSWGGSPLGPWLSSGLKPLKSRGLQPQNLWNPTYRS
Protein arginine N-methyltransferase 8, sequence (Q9NR22 2-394 limits assumed): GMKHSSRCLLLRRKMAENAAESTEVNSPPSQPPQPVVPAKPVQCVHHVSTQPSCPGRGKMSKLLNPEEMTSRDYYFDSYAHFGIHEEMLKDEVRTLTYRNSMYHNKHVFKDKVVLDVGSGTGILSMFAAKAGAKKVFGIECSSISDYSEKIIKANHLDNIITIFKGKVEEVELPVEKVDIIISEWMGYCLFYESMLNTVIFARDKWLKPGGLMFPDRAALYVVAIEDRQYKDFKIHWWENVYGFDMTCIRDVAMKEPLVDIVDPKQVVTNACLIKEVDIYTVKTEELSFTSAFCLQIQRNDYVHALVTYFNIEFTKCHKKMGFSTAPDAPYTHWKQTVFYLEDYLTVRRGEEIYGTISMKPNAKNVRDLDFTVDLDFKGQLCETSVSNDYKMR
Tyrosine-protein kinase Yes (Homo sapiens), sequence (P07947 2-543 limits assumed): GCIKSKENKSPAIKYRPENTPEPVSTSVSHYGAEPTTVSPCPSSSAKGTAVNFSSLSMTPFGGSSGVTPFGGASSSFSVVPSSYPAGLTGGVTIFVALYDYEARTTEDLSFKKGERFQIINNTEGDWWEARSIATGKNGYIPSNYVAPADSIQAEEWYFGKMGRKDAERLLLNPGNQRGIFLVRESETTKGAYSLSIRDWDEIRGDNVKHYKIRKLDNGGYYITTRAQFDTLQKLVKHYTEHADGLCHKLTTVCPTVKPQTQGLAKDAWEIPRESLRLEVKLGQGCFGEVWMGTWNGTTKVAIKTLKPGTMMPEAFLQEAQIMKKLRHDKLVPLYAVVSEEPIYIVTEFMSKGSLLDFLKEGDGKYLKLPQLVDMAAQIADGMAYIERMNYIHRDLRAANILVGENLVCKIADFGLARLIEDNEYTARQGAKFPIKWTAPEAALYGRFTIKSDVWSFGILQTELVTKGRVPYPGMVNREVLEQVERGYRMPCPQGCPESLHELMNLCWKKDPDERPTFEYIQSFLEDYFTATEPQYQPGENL
Calcium/calmodulin-dependent protein kinase kinase 1 (Homo sapiens), sequence (Q8N5S9 whole entry, looked up): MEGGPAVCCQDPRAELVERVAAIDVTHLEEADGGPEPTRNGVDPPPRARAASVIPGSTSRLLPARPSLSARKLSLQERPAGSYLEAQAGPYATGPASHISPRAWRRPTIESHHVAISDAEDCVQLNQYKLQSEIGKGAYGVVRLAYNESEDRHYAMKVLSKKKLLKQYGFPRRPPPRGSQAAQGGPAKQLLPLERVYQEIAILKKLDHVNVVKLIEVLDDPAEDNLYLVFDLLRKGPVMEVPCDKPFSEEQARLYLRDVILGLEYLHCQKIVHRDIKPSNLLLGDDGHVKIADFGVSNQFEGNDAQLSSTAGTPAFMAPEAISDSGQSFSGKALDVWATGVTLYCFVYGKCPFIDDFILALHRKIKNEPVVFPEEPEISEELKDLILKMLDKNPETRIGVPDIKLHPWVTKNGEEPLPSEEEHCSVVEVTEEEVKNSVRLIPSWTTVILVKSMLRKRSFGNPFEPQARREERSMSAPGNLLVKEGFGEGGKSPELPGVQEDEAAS
Myosin light chain kinase 2, skeletal/cardiac muscle (Homo sapiens), sequence (Q9H1R3 whole entry): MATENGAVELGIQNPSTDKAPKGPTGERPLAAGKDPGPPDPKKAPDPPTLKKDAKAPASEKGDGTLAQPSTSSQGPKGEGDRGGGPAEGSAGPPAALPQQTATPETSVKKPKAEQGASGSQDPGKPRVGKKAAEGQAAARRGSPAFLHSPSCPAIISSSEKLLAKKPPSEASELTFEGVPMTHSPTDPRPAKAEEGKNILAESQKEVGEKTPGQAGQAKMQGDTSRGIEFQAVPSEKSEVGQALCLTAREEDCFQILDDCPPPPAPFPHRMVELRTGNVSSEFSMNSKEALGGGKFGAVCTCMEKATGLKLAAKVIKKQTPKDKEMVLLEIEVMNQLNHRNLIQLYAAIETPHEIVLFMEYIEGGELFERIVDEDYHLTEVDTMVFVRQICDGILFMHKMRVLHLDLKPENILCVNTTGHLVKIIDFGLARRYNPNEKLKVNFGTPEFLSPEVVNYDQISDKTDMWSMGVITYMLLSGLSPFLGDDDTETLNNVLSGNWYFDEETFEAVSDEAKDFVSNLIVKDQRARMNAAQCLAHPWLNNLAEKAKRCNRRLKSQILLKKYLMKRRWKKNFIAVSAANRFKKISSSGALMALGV
Interferon-induced, double-stranded RNA-activated protein kinase (Homo sapiens), sequence (P19525 whole entry): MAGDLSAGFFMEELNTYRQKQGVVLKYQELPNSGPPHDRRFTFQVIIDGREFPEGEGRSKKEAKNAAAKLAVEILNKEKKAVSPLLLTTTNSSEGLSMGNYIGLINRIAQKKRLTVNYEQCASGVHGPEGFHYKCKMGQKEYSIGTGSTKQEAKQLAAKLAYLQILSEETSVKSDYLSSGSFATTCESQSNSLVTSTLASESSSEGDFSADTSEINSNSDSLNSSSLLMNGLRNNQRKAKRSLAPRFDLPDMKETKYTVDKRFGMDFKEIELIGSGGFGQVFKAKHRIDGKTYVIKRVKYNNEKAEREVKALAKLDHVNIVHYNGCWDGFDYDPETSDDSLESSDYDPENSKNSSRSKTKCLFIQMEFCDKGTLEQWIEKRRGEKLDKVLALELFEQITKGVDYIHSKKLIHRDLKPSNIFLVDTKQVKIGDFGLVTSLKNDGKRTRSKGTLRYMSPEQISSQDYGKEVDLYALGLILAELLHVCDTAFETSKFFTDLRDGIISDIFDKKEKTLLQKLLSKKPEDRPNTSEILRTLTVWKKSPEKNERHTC
Calcium/calmodulin-dependent protein kinase type 1D (Homo sapiens), sequence (Q8IU85 whole entry, looked up): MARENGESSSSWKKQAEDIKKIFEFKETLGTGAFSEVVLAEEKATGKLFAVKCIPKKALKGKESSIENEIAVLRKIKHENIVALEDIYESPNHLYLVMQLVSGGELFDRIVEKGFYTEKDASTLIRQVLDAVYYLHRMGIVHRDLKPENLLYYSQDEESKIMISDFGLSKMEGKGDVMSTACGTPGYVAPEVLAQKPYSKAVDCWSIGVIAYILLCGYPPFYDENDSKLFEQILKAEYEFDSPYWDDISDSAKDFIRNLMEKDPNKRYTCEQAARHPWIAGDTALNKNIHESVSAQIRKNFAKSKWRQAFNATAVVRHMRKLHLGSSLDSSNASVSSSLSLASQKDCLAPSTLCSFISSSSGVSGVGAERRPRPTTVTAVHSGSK

`N#Cc1cccc(-c2c[nH]c3ncnc(N4CCOCC4)c23)c1` came in with a % of control in test [1] of 100%.

For the molecule `O=C(NOC[C@H](O)CO)c1ccc(F)c(F)c1Nc1ccc(I)cc1F`, the % of control in [2] and in test [3] was 100% in each case.

As to `CC[C@@H]1[C@H](F)C(=O)N[C@@H]1COc1nccc2cc(C(N)=O)c(OC)cc12` [ZIMLOVISERTIB], the % of inhibition in [4] is 8.31%.

In test [5], `CNCCN1CCC(c2cc(CN(C)C(=O)c3cccc(Oc4ccccc4)c3)ccn2)CC1` gave a % activity of over 90%.

As for `C=CC(=O)Nc1cc(-n2c(=O)ccc3cnc4ccc(-c5ccc(NS(C)(=O)=O)cc5)cc4c32)ccc1C`, the % of control in test [6] (at 1 µM) and in test [6] (at 10 µM) was 100% each time.

For the molecule `C=CC(=O)Nc1cccc(C(=O)Nc2ccc(Nc3cc(-c4[nH]c(SC)nc4C)ccn3)cc2)c1`, the % of control came out at 91% in [7] (at 1 µM) and 92% in test [7] (at 5 µM).

For `CN(C)C/C=C/C(=O)Nc1ccc(C(=O)N2CCCC(Nc3ncc(Cl)c(-c4c[nH]c5ccccc45)n3)C2)cc1` (stereo not drawn), the % of control in [8] amounted to 72%; in test [9] it was 91%.

Take `CCC(=O)N1CCN(c2ccc(-n3c(=O)ccc4cnc5ccc(-c6cnc7ccccc7c6)cc5c43)cc2C(F)(F)F)CC1`: in test [10], the % of control is 74%.

For `CC(C)(O)[C@H](F)CN1Cc2cc(NC(=O)c3cnn4cccnc34)c(N3CCOCC3)cc2C1=O`, the dTM in [11] is -0.1 K.
